Experimental data: PMC10340768, “New Hydrolyzable Tannin with Potent Antioxidant and α-Glucosidase Inhibitory Activity from Black Tea Produced from Camellia taliensis” (Foods, 2023)

Legend:
[1] = DPPH radical scavenging assay; conditions: for IC50: half-maximal inhibitory concentration to DPPH radical, means ± SD (n = 3); for DPPH Inhibition Ratio (%): at a concentration of 500 μM;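 as to all read-outs here: compounds in EtOH mixed 1:1 with 200 µM DPPH in EtOH in 96-well plates, kept dark 15 min at room temperature, with blank control and ascorbic acid as reference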
Protocol: (§1) The DPPH assay was conducted as follows: the tested compound (final concentration: 0.2–1000 μM in EtOH, 100 μL) and DPPH solution (200 μM in EtOH, 100 μL) were sequentially added to 96-well plates at room temperature, then hid from the light for 15 min. The blank control and positive control (ascorbic acid) were set simultaneously. OD values at 517 nm were detected with a microplate reader. ABTS^+ assay was carried out as follows: firstly, the ABTS^+ solution was prepared using the procedure in our previous paper [19]. Then, the tested compound (final concentration: 0.2–1000 μM in EtOH, 10 μL) and ABTS^+ solution (200 μL) were added to 96-well plates at room temperature in an orderly manner, and then hided from light for 6–8 min. The blank control and positive control (trolox) were set synchronously. OD values at 405 nm were then detected with a microplate reader. All the reactions were set up three replicates.

[2] = ABTS+ radical scavenging assay; conditions: for IC50: half-maximal inhibitory concentration to ABTS+ radical, means ± SD (n = 3); for ABTS+ Inhibition Ratio (%): at a concentration of 500 μM;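 as to all read-outs here: ABTS+ radical solution incubated with compound in EtOH in 96-well plates for 6–8 min in the dark at room temperature, versus blank control, trolox as reference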
Protocol: as §1

[3] = target: α-glucosidase; experiment: α-Glucosidase inhibitory activity (PNPG substrate); assay type: biochemical; conditions: means ± SD (n = 3)
Protocol: Initially, 96-well plates with the following ingredients were added in a proper order: testing compound (50 μM), α-glucosidase solution (0.025 U/mL), buffer, and the zymolyte (1 mM), and kept at 37 °C for 50 min. […] All the reactions were set up with three replicates. OD values at 405 nm were recorded with a microplate reader.

IC50 [1] | IC50 [2] | IC50 [3] | Molecule | DPPH Inhibition Ratio (%) [1] | ABTS+ Inhibition Ratio (%) [2]
548 ± 61.5 µM | 307 ± 3.3 µM |  | 1-(3′,4′-dihydroxycinnamoyl) cyclopentane-2,3-diol [Compound 30] |  | 
217 ± 27.4 µM | 99.7 ± 1.4 µM |  | O=C(OC[C@H]1O[C@@H](OC(=O)c2cc(O)c(O)c(O)c2)[C@H](O)[C@@H](O)[C@@H]1O)c1cc(O)c(O)c(O)c1 [Compound 6, 1,6-di-O-galloyl-β-D-glucopyranose] |  | 
532 ± 38 µM | 128.4 ± 0.9 µM | 1.96 ± 0.05 µM | O=C(OC[C@H]1O[C@@H](OC(=O)c2cc(O)c(O)c(O)c2)[C@H](OC(=O)c2cc(O)c(O)c(O)c2)[C@@H](O)[C@@H]1O)c1cc(O)c(O)c(O)c1 [Compound 7, 1,2,6-tri-O-galloy-β-D-glucopyranose] |  | 
156 ± 26.1 µM | 77.2 ± 0.7 µM | 2.01 ± 0.02 µM | O=C(OC[C@H]1O[C@@H](OC(=O)c2cc(O)c(O)c(O)c2)[C@H](O)[C@@H](O)[C@@H]1OC(=O)c1cc(O)c(O)c(O)c1)c1cc(O)c(O)c(O)c1 [Compound 8, 1,4,6-tri-O-galloyl-β-D-glucopyranose] |  | 
 | 322.8 ± 0.6 µM |  | O=c1c(O[C@@H]2O[C@H](CO)[C@@H](O)[C@H](O)[C@H]2O)c(-c2ccc(O)c(O)c2)oc2cc(O)cc(O)c12 [Compound 11, quercetin 3-O-β-D-glucopyranoside] |  | 
900 ± 63.4 µM | 266 ± 5.4 µM |  | C[C@@H]1O[C@@H](OC[C@H]2O[C@@H](Oc3c(-c4ccc(O)c(O)c4)oc4cc(O)cc(O)c4c3=O)[C@H](O)[C@@H](O)[C@@H]2O)[C@H](O)[C@H](O)[C@H]1O [Compound 13, rutin] |  | 
1140 ± 207 µM | 206 ± 2.6 µM |  | O=c1c(O)c(-c2ccc(O)c(O)c2)oc2cc(O)cc(O)c12 [Compound 16, quercetin] |  | 
2620 ± 500 µM | 480.9 ± 4.1 µM |  | C[C@@H]1O[C@@H](Oc2c(-c3ccc(O)c(O)c3)oc3cc(O)cc(O)c3c2=O)[C@H](O[C@@H]2O[C@H](CO)[C@@H](O)[C@H](O)[C@H]2O)[C@H](O)[C@H]1O [Compound 17, quercetin 3-(2″-β-D-glucosyl)-α-L-rhamnopyranoside] |  | 
237 ± 22.6 µM | 202 ± 3.4 µM |  | O=C(O)c1cc(O)c(O)c(O)c1 [Compound 19, gallic acid] |  | 
299 ± 32.3 µM | 187 ± 2.7 µM |  | COC(=O)c1cc(O)c(O)c(O)c1 [Compound 23, methyl gallate] |  | 
722 ± 43.2 µM | 545 ± 12.8 µM |  | O=C(/C=C/c1ccc(O)c(O)c1)O[C@@H]1CC(C(=O)O)=C[C@@H](O)[C@H]1O [Compound 27, 5-O-caffeoylshikimic acid] |  | 
479 ± 33.8 µM | 199 ± 4.1 µM |  | O=C(O)/C=C/c1ccc(O)c(O)c1 [Compound 28, caffeic acid] |  | 
 | 405 ± 6.2 µM |  | Cc1c(C)c2c(c(C)c1O)CCC(C)(C(=O)O)O2 (centres unmarked) [Trolox, trolox, reference compound] |  | 

Continued, molecule first:

Molecule | IC50 [1] | IC50 [2] | IC50 [3] | DPPH Inhibition Ratio (%) [1] | ABTS+ Inhibition Ratio (%) [2]
O=C1O[C@H]([C@@H](O)CO)C(O)=C1O [Ascorbic acid, ascorbic acid, reference compound] | 1200 ± 87.7 µM |  |  |  | 
O=C(O[C@@H]1O[C@@H]2COC(=O)c3cc(O)c(O)c4oc5c(O)c(O)cc(c5c34)C(=O)O[C@H]2[C@H](O)[C@H]1O)c1cc(O)c(O)c(O)c1 [Compound 1, 1-O-galloyl-4,6-tetrahydroxydibenzofurandicarboxyl-β-D-glucopyranose] | 339 ± 24.7 µM | 111 ± 2.1 µM | 1.77 ± 0.05 µM |  | 
O=C(O)/C=C\c1ccc(O[C@@H]2O[C@H](COC(=O)c3cc(O)c(O)c(O)c3)[C@@H](O)[C@H](O)[C@H]2O)cc1 [Compound 2, 4-O-(6′-O-galloyl-β-D-glucopyranosyl)-cis-p-coumaric acid] | 502 ± 14 µM | 400 ± 9.6 µM |  |  | 
O=C(O[C@H]1C(O)O[C@@H]2COC(=O)c3cc(O)c(O)c(O)c3-c3c(cc(O)c(O)c3O)C(=O)O[C@H]2[C@@H]1O)c1cc(O)c(O)c(O)c1 (stereo partly drawn) [Compound 3, 2-O-galloyl-4,6-O-(S)-hexahydroxydiphenoyl-β-D-glucopyranose] | 941 ± 191 µM | 106 ± 0.5 µM | 1.74 ± 0.03 µM |  | 
O=C(O[C@@H]1O[C@@H]2COC(=O)c3cc(O)c(O)c(O)c3-c3c(cc(O)c(O)c3O)C(=O)O[C@H]2[C@H](O)[C@H]1O)c1cc(O)c(O)c(O)c1 [Compound 4, 1-O-galloyl-4,6-O-(S)-hexahydroxydiphenoyl-β-D-glucopyranose] | 312 ± 10.8 µM | 84.8 ± 0.4 µM | 1.96 ± 0.06 µM |  | 
O=C(O[C@@H]1O[C@@H]2COC(=O)c3cc(O)c(O)c(O)c3-c3c(cc(O)c(O)c3O)C(=O)O[C@H]2[C@H](O)[C@H]1OC(=O)c1cc(O)c(O)c(O)c1)c1cc(O)c(O)c(O)c1 [Compound 5, 1,2-di-O-galloyl-4,6-O-(S)-hexahydroxydiphenoyl-β-D-glucopyranose] | 301 ± 79.6 µM | 75.6 ± 2.1 µM | 0.67 ± 0.04 µM |  | 
O=c1c(O[C@@H]2O[C@H](CO)[C@@H](O)[C@H](O)[C@H]2O)c(-c2ccc(O)cc2)oc2cc(O)cc(O)c12 [Compound 9, kaempferol 3-O-β-D-glucopyranoside] |  |  |  | 0.97% | 0.19%
O=C(/C=C/c1ccc(O)cc1)OC[C@H]1O[C@@H](Oc2c(-c3ccc(O)cc3)oc3cc(O)cc(O)c3c2=O)[C@H](O)[C@@H](O)[C@@H]1O [Compound 10, kaempferol 3-O-(6″-trans-p-coumaroyl)-β-D-glucopyranoside] |  |  |  | 6.28% | 11.55%
C[C@@H]1O[C@@H](OC[C@H]2O[C@@H](Oc3c(-c4ccc(O)cc4)oc4cc(O)cc(O)c4c3=O)[C@H](O)[C@@H](O)[C@@H]2O)[C@H](O)[C@H](O)[C@H]1O [Compound 12, kaempferol 3-O-rutinoside] |  |  |  | 8.58% | 4.24%
O=c1c(O[C@@H]2O[C@H](CO)[C@H](O)[C@H](O)[C@H]2O)c(-c2ccc(O)cc2)oc2cc(O)cc(O)c12 [Compound 14, kaempferol 3-O-β-D-galactopyranoside] |  |  |  | −0.94% | 4.03%
C[C@@H]1O[C@@H](Oc2c(-c3ccc(O)cc3)oc3cc(O)cc(O)c3c2=O)[C@H](O)[C@H](O)[C@H]1O [Compound 15, kaempferol 3-O-α-L-rhamnopyranoside] |  |  |  | 1.04% | 8.00%
C[C@@H]1O[C@@H](Oc2c(-c3ccc(O)cc3)oc3cc(O)cc(O)c3c2=O)[C@H](O[C@@H]2O[C@H](CO)[C@@H](O)[C@H](O)[C@H]2O)[C@H](O)[C@H]1O [Compound 18, kaempferol 3-(2″-β-D-glucosyl)-α-L-rhamnopyranoside] |  |  |  | 1.08% | 5.89%
O=C(O)c1ccc(O)c(O)c1 [Compound 20, 3,4-dihydroxybenzoic acid] | 2120 ± 336 µM | 462 ± 9.3 µM |  |  | 
O=C(O)c1ccc(O)cc1 [Compound 21, p-hydroxybenzoic acid] |  |  |  | 3.32% | 3.21%
O=C(O)c1cccc(O)c1 [Compound 22, m-hydroxybenzoic acid] |  |  |  | 7.58% | 7.00%
O=C(C=Cc1ccc(O)cc1)OC1CC(O)(C(=O)O)CC(O)C1O (centres unmarked) [Compound 26, 5-O-(E)-p-coumaroylquinic acid] |  |  |  | 6.92% | 6.82%
O=C(O)/C=C/c1ccc(O)cc1 [Compound 29, E-p-hydroxycinnamic acid] |  |  |  | 1.55% | 8.12%
O=C1O[C@@H](c2ccc(O)cc2)Cc2cc(O)cc(O)c21 [Compound 32, (3R)-thunberginol C] | 3940 ± 825 µM | 560.3 ± 3.3 µM |  |  | 
